Test results from patent US11712438B2, “Phenyl derivatives as PGE2 receptor modulators” (IDORSIA PHARMACEUTICALS LTD, priority 2017, dated 2023).

Columns and labels:
Experiment in all cases: cell-based
EP2 = EP2 (Homo sapiens, UniProt P43116);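 also: SF295 glioblastoma cells with endogenous EP2 only, PGE2-stimulated cAMP accumulation read by HTRF competitive immunoassay, 45 min pre-incubation then 30 min at room temperature, IBMX in buffer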
Description: The antagonistic activities of the compounds of formula (I) on the EP2 and EP4 receptors are also determined in accordance with the following experimental method.
Human tumor cell lines expressing endogenously either EP4 or EP2 are used and cAMP accumulation in cells upon PGE2 stimulation is monitored. SF295 glioblastoma cells express high endogenous EP2 and no EP4,whereas BT549 breast cancer cells, express high endogenous EP4 levels and very low EP2 levels.
As a detection method for cAMP the HTRF (homogeneous time resolved fluorescence) Cisbio kit (HTRF cAMP dynamic 2 kit 20′000 tests Cisbio Cat. #62AM4PEC) was used, which is based on a competitive immunoassay using a Cryptate-labeled anti-cAMP antibody and d2-labeled cAMP. Native cAMP produced by cells or unlabeled cAMP (for the standard curve) compete with exogenously added d2-labeled cAMP (acceptor) for binding to monoclonal anti-cAMP-Eu3+ Cryptate (donor). A FRET signal (Fluorescence Resonance Energy Transfer) is obtained only if the labeled anti-cAMP antibody binds the d2 labelled cAMP, thus the specific signal (i.e. energy transfer) is inversely proportional to the concentration of cAMP in the standard or sample.
The SF295 cells (NCI/No. 0503170) are detached from culture dishes with a cell dissociation buffer (Invitrogen, 13151-014), and collected in growing medium (GM: RPM11640 (Invitrogen 21875)/10% FCS, 1% Penicilin/streptomycin). Cells are counted washed and resuspended in assay buffer (AB; HBSS, 20 mM HEPES, 0.2% BSA; 2 mM IBMX). 4′000 cells in 5 μl of AB are seeded per well of a small volume 384 well plate (black with flat bottom, Greiner 784076).
PGE2 (Cayman 14010, stock solution: 750 in DMSO) is used as agonist at 75 nM final concentration, corresponding to EC80.
Two point five microliters of diluted compounds are transferred into the assay plate. Plate is pre-incubated 45 minutes at room temperature. Subsequently, 2.5 microliters of PGE2 (final conc. 75 nM) are transferred into the assay plate. Plate is incubated 30 minutes at room temperature.
For each compound concentration the percentage of cAMP compared to DMSO control value as average±STDEV (each concentration is measured in duplicate) is calculated.

EP4 = EP4 (Homo sapiens, UniProt P35408);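 also: inhibition of PGE2-evoked (6 nM) cAMP accumulation in BT549 breast cancer cells endogenously expressing EP4, cAMP read by HTRF competitive immunoassay after 30 min at room temperature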
PTGER2 (EP2) = PTGER2 (EP2) (Homo sapiens, UniProt P43116)
Excerpt: The assay is using the PathHunter™ HEK 293 PTGER2 and PTGER4 b-arrestin cell lines from DiscoverX. The system is based on the Enzyme Fragment Complementation Technology. Two complementing fragments of the b-galactosidase enzyme are expressed within stably transfected cells. The larger portion of b-gal, termed EA for Enzyme Acceptor, is fused to the C-terminus of b-arrestin 2. The smaller fragment, termed ProLink™ tag, is fused to PTGER2 (EP2) or PTRGER4 (EP4) at the C-terminus. Upon activation, b-arrestin is recruited which forces the interaction of ProLink and EA, allowing complementation of the two fragments of b-gal and the formation of a functional enzyme which is capable of hydrolysing the substrate and generating a chemiluminescent signal.
The HEK 293 PTGER2 b-arrestin cells (DiscoverX 93-021-4C1) are detached from culture dishes with a cell dissociation buffer (Invitrogen, 13151-014), and collected in growing medium (GM: DMEM+Glutamax-I (Invitrogen 32430)/10% FCS, 1% Penicilin/streptomycin). 5000 cells per well of a 384 well plate (white with white bottom Greiner 781080) are seeded in 20 ul per well of GM. Plate is incubated at 37° C., 5% CO2 for 24 hours.
Stock solutions of test compounds are made at a concentration of 10 mM in DMSO, and serially diluted in DMSO to concentrations required for inhibition dose response curves (tested concentration range 10 μM-2 nM or 1 μM-0.2 nM).
PGE2 (Cayman 14010, stock solution: 10 mM in DMSO) is used as agonist at 5 μM final concentration, corresponding to EC80.
Five microliters of diluted compounds are transferred into the assay plate. Plate is pre-incubated 15 minutes at 37° C. Then five microliters of PGE2 (final conc. 5 μM) are transferred into the assay plate. Plate is incubated 120 minutes at 37° C.
Twelve μl of reagent are transferred to the assay plate and incubate for 1 hour at room temperature in the dark. Luminescence counts are read on a BMG Fluostar Optima reader according to manufacturer's instructions.
For each compound concentration calculate of the percentage of activity compared to DMSO control value as average±STDEV. (each concentration is measured in duplicate)
When compounds were measured multiple times, mean values are given.

PTRGER4 (EP4) = PTRGER4 (EP4) (Homo sapiens, UniProt P35408);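 also: assay plate preincubated 15 min at 37 °C, after which PGE2 was added at 20 nM final and incubation continued 120 min at 37 °C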
Sequence of PTRGER4 (EP4) (P35408 whole entry): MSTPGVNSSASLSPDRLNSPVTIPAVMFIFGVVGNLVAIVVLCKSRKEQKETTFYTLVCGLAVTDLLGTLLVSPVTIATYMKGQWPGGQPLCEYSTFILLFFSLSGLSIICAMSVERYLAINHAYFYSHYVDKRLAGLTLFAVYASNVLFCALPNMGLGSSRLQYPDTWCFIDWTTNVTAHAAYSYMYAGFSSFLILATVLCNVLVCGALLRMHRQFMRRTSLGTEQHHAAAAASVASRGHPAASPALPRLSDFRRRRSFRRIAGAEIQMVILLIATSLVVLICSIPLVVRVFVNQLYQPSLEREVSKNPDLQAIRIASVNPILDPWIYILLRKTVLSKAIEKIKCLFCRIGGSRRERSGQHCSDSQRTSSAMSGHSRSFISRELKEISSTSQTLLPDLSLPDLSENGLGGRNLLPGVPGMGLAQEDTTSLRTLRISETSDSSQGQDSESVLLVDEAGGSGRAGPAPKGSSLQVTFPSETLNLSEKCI

Sequence of EP2 (P43116 whole entry): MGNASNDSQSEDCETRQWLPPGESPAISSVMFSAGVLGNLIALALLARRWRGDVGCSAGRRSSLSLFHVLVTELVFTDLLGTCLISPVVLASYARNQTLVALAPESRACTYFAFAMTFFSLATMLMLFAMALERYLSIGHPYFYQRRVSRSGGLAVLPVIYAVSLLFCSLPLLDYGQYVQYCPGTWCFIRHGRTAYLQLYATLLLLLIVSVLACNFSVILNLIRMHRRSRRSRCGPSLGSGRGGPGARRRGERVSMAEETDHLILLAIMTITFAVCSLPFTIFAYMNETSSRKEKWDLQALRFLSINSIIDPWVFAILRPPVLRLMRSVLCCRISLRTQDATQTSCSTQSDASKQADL
Sequence of PTGER2 (EP2) (P43116 whole entry): as above
Sequence of EP4 (P35408 whole entry): as the sequence (P35408 whole entry) above

| SMILES | IC50 (EP2) [nM] | IC50 (EP4) [nM] | IC50 (PTGER2 (EP2)) [nM] | IC50 (PTRGER4 (EP4)) [nM] |
| --- | --- | --- | --- | --- |
| O=C(O)c1ccc2[nH]c(-c3cc(NCCc4c(F)cc(Br)cc4F)ncn3)cc2c1 [Example 168, 2-{6-[2-(4-Bromo-2,6-difluoro-phenyl)-ethylamino]-pyrimidin-4-yl}-1H-indole-5-carboxylic acid] | 1690 | 2000 | 190 | 196 |
| O=C(O)c1ccc2cc(-c3cc(NCCc4c(F)cc(Br)cc4F)ncn3)[nH]c2c1 [Example 169, 2-{6-[2-(4-Bromo-2,6-difluoro-phenyl)-ethylamino]-pyrimidin-4-yl}-1H-indole-6-carboxylic acid] | 74 | 1380 | 21 | 457 |
| COc1cc(-c2cc(NCCc3c(F)cc(Br)cc3F)ncn2)ccc1-c1cc(O)no1 [Example 174, 5-(4-{6-[2-(4-Bromo-2,6-difluoro-phenyl)-ethylamino]-pyrimidin-4-yl}-2-methoxy-phenyl)-isoxazol-3-ol] | 265 | 94 | 36 | 108 |
| COc1cc(-c2cc(NCCc3c(F)cc(Br)cc3F)ncn2)sc1C(=O)O [Example 176, 5-{6-[2-(4-Bromo-2,6-difluoro-phenyl)-ethylamino]-pyrimidin-4-yl}-3-methoxy-thiophene-2-carboxylic acid] | 9 | 6 | 22 | 75 |
| CCOc1cc(-c2cc(NCCc3c(C)cccc3OC)ncn2)sc1C(=O)O [Example 178, 3-Ethoxy-5-{6-[2-(2-methoxy-6-methyl-phenyl)-ethylamino]-pyrimidin-4-yl}-thiophene-2-carboxylic acid] | 10 | 134 | 29 | 404 |
| CCOc1cc(-c2cc(NCCc3c(F)cc(Br)cc3F)ncn2)ccc1C(=O)O [Example 180, 4-{6-[2-(4-Bromo-2,6-difluoro-phenyl)-ethylamino]-pyrimidin-4-yl}-2-ethoxy-benzoic acid] | 52 | 221 | 119 | 674 |
| CCOc1cc(-c2cc(NCCc3ccc(Cl)c(Cl)c3C)ncn2)sc1C(=O)O [Example 181, 5-{6-[2-(3,4-Dichloro-2-methyl-phenyl)-ethylamino]-pyrimidin-4-yl}-3-ethoxy-thiophene-2-carboxylic acid] | 92 | 34 | 165 | 96 |
| COc1cc(C(F)F)c(F)cc1CCNc1cc(-c2ccc(C(=O)O)c(OC3CCC3)c2)ncn1 [Example 184, 2-Cyclobutoxy-4-{6-[2-(4-difluoromethyl-5-fluoro-2-methoxy-phenyl)-ethylamino]pyrimidin-4-yl}-benzoic acid] | 630 | 250 | 127 | 140 |
| CCOc1cc(-c2cc(NCCc3cc(F)c(C(F)F)cc3OC)ncn2)sc1C(=O)O [Example 185, 5-{6-[2-(4-Difluoromethyl-5-fluoro-2-methoxy-phenyl)-ethylamino]-pyrimidin-4-yl}-3-ethoxy-thiophene-2-carboxylic acid] | 41 | 6 | 51 | 8 |
| COc1cc(C(F)F)c(F)cc1CCNc1cc(-c2ccc(C(=O)O)c(SC)c2)ncn1 [Example 187, 4-{6-[2-(4-Difluoromethyl-5-fluoro-2-methoxy-phenyl)-ethylamino]-pyrimidin-4-yl}-2-methylsulfanyl-benzoic acid] | 260 | 200 | 130 | 216 |
| COc1cc(C(F)(F)F)c(Cl)cc1CCNc1cc(-c2ccc(C(=O)O)c(SC)c2)ncn1 [Example 196, 4-{6-[2-(5-Chloro-2-methoxy-4-trifluoromethyl-phenyl)-ethylamino]-pyrimidin-4-yl}-2-methylsulfanyl-benzoic acid] | 400 | 107 | 235 | 113 |
| CCOc1cc(-c2cc(NCCc3c(C)cc(C)cc3OC)ncn2)sc1C(=O)O [Example 203, 3-Ethoxy-5-{6-[2-(2-methoxy-4,6-dimethyl-phenyl)-ethylamino]-pyrimidin-4-yl}-thiophene-2-carboxylic acid] | 27 | 11 | 81 | 92 |
| CCOc1cc(-c2cc(NCCc3ccc(OC(F)(F)F)cc3OC)ncn2)sc1C(=O)O [Example 210, 3-Ethoxy-5-{6-[2-(2-methoxy-4-trifluoromethoxy-phenyl)-ethylamino]-pyrimidin-4-yl}-thiophene-2-carboxylic acid] | 615 | 21 | 294 | 20 |
| CCOc1cc(C(F)(F)F)ccc1CCNc1cc(-c2ccc(C(=O)O)c(OCC)c2)ncn1 [Example 211, 2-Ethoxy-4-{6-[2-(2-ethoxy-4-trifluoromethyl-phenyl)-ethylamino]-pyrimidin-4-yl}-benzoic acid] | 148 | 170 | 106 | 126 |
| CCOc1cc(C(F)(F)F)ccc1CCNc1cc(-c2ccc(C(=O)O)c(SC)c2)ncn1 [Example 212, 4-{6-[2-(2-Ethoxy-4-trifluoromethyl-phenyl)-ethylamino]-pyrimidin-4-yl}-2-methylsulfanyl-benzoic acid] | 62 | 93 | 26 | 50 |
| CCCc1cc(-c2cc(NCCc3ccc(C(F)(F)F)cc3OCC)ncn2)ccc1C(=O)O [Example 213, 4-{6-[2-(2-Ethoxy-4-trifluoromethyl-phenyl)-ethylamino]-pyrimidin-4-yl}-2-propyl-benzoic acid] | 184 | 300 | 71 | 217 |
| CCOc1cc(C(F)(F)F)ccc1CCNc1cc(-c2cc(OCC)c(C(=O)O)s2)ncn1 [Example 215, 3-Ethoxy-5-{6-[2-(2-ethoxy-4-trifluoromethyl-phenyl)-ethylamino]-pyrimidin-4-yl}-thiophene-2-carboxylic acid] | 12 | 8 | 10 | 3 |
| CNc1cc(-c2cc(NCCc3c(F)cc(Br)cc3F)ncn2)ccc1C(N)=O [Example 216, 4-{6-[2-(4-Bromo-2,6-difluoro-phenyl)-ethylamino]-pyrimidin-4-yl}-2-methylamino-benzamide] | 23 | 67 | 21 | 17 |
| CCNc1cc(-c2cc(NCCc3c(F)cc(Br)cc3F)ncn2)ccc1C(N)=O [Example 217, 4-{6-[2-(4-Bromo-2,6-difluoro-phenyl)-ethylamino]-pyrimidin-4-yl}-2-ethylamino-benzamide] | 134 | 79 | 20 | 29 |
| CCOc1cc(-c2cc(NCCc3ccc(C(F)(F)F)cc3OC(F)F)ncn2)sc1C(=O)O [Example 219, 5-{6-[2-(2-Difluoromethoxy-4-trifluoromethyl-phenyl)-ethylamino]-pyrimidin-4-yl}-3-ethoxy-thiophene-2-carboxylic acid] | 332 | 42 | 302 | 96 |
| CNc1cc(-c2cc(NCCc3c(F)cc(Br)cc3F)ncn2)ccc1C(=O)O [Example 231, 4-{6-[2-(4-Bromo-2,6-difluoro-phenyl)-ethylamino]-pyrimidin-4-yl}-2-methylamino-benzoic acid] | 13 | 43 | 16 | 94 |
| CCOc1cc(-c2cc(NCCc3c(F)cc(Br)cc3F)ncn2)ccc1-c1noc(=O)[nH]1 [Example 234, 3-(4-{6-[2-(4-Bromo-2,6-difluoro-phenyl)-ethylamino]-pyrimidin-4-yl}-2-ethoxy-phenyl)-[1,2,4]oxadiazol-5(4H)-one] | 93 | 23 | 77 | 49 |
| O=c1[nH]c(-c2ccc(-c3cc(NCCc4c(F)cc(Br)cc4F)ncn3)cc2)no1 [Example 235, 3-(4-{6-[2-(4-Bromo-2,6-difluoro-phenyl)-ethylamino]-pyrimidin-4-yl}-phenyl)-[1,2,4]oxadiazol-5(4H)-one] | 203 | 149 | 43 | 89 |
| CC(C)COc1cc(-c2cc(NCCc3c(F)cc(Br)cc3F)ncn2)ccc1C(=O)O [Example 237, 4-{6-[2-(4-Bromo-2,6-difluoro-phenyl)-ethylamino]-pyrimidin-4-yl}-2-isobutoxy-benzoic acid] | 128 | 668 | 72 | 419 |
| CCOc1cc(-c2cc(NCCc3c(F)cc(Br)cc3F)ncn2)ccc1NC=O [Example 240, N-(4-{6-[2-(4-Bromo-2,6-difluoro-phenyl)-ethylamino]-pyrimidin-4-yl}-2-ethoxy-phenyl)-formamide] | 511 | 405 | 127 | 72 |
| CC(C)Cc1cc(-c2cc(NCCc3c(F)cc(Br)cc3F)ncn2)ccc1CC(=O)O [Example 244, (4-{6-[2-(4-Bromo-2,6-difluoro-phenyl)-ethylamino]-pyrimidin-4-yl}-2-isobutyl-phenyl)-acetic acid] | 1130 | 280 | 364 | 251 |
| CCc1cc(-c2cc(NCCc3c(F)cc(Br)cc3F)ncn2)ccc1C(=O)OC [Example 245, 4-{6-[2-(4-Bromo-2,6-difluoro-phenyl)-ethylamino]-pyrimidin-4-yl}-2-ethyl-benzoic acid methyl ester] | 4630 | 6720 | 392 | 307 |
| CCCOc1cc(-c2cc(NCCc3c(F)cc(Br)cc3F)ncn2)ccc1CC(=O)O [Example 248, (4-{6-[2-(4-Bromo-2,6-difluoro-phenyl)-ethylamino]-pyrimidin-4-yl}-2-propoxy-phenyl)-acetic acid] | 635 | 299 | 226 | 311 |
